Measurements taken from US20260152487A1 (Sitryx Therapeutics Limited, priority 2021, published 2026).

Molecular target: T1, recombinant human PKM2 (Homo sapiens, UniProt P14618)
T1 construct: His (N); purchased R&D Systems
Assay: Human PKM2 activation assay (Kinase-Glo Plus luminescent detection of generated ATP)
Format: biochemical
Conditions: for Emax: percentage activation normalised to DMSO vehicle (LOW) and 5 μM TEPP-46 (HIGH), read-out: hPKM2 Emax; for EC50: recombinant human PKM2 activation, 4-parameter logistic fit, read-out: hPKM2 EC50
Method: Compound activation of recombinant human PKM2 pyruvate kinase activity was determined by biochemical assay. N-terminal His-tagged hPKM2 was sourced from R&D Systems and its substrates phosphoenolpyruvate (PEP) and ADP from Sigma-Aldrich and 2Bscientific Ltd, respectively. The Kinase-Glo® Plus luminescence assay was from Promega. All other reagents were from Sigma-Aldrich. Test Compounds were prepared as 10 mM DMSO stocks and dilution series prepared in DMSO for direct dilution into Assay Buffer comprising 50 mM imidazole, 50 mM KCl, 7 mM MgCl2, 0.01% Tween20, 0.05% BSA (pH 7.2).
Human PKM2 was diluted into Assay Buffer comprising 50 mM imidazole, 50 mM KCl, 7 mM MgCl2, 0.01% Tween20, 0.05% BSA (pH 7.2) to a final concentration of […]. Enzyme-Assay Buffer mix was dispensed into a 384-well shallow-well white-walled plate (PerkinElmer) and Test Compounds added by acoustic dispense (Echo®, Labcyte Inc.).
After 60 minutes' incubation on an orbital shaker (300 rpm, 26° C.), enzyme activity was quantified by the luminescent detection of generated ATP. Kinase-Glo® Plus reagent was added to each well and the plates incubated for a further 15 minutes on an orbital shaker in the dark (300 rpm, 26° C.) before luminescence measurement on a plate reader (PHERAstar® FSX, BMG Labtech).
Percentage activation was calculated by normalising […] signals to plate LOW (DMSO vehicle) and HIGH (5 μM TEPP-46) controls. EC50 and Emax values were determined from 4-parameter logistic fits of compound concentration-response curves.

T1 sequence (P14618 2-531 limits assumed): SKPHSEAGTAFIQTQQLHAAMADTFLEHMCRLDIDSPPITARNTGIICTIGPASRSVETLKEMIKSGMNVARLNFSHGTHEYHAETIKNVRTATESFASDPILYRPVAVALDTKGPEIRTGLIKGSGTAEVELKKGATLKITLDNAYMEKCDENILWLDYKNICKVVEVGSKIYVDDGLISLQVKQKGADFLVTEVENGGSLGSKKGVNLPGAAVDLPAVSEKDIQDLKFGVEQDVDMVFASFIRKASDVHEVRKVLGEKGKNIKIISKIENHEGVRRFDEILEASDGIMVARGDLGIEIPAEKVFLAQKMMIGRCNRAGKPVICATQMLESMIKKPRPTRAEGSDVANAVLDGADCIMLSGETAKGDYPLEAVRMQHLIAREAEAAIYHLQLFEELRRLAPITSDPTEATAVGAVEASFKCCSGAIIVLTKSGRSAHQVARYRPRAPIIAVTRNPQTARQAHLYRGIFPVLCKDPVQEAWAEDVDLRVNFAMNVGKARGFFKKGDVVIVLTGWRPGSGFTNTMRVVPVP

Row | Structure (SMILES) | Emax | EC50
1 | Nc1cccc(Cn2ncc3cc(S(=O)(=O)c4ccccn4)ccc3c2=O)c1 [Example 144, 2-(3-aminobenzyl)-6-(pyridin-2-ylsulfonyl)phthalazin-1(2H)-one] | 114% | 0.144 µM
2 | COc1ccc(Cn2ncc3cc(S(=O)(=O)c4cccc(Cl)c4)ccc3c2=O)cn1 [Example 154, 6-((3-chlorophenyl)sulfonyl)-2-((6-methoxypyridin-3-yl)methyl)phthalazin-1(2H)-one] | 93.7% | 0.141 µM
3 | Cc1onc(C(N)=O)c1Cn1ncc2cc(S(=O)(=O)c3ccccc3)ccc2c1=O [Example 94, 5-methyl-4-((1-oxo-6-(phenylsulfonyl)phthalazin-2(1H)-yl)methyl) isoxazole-3-carboxamide] | 71.3% | 0.588 µM
4 | COc1ccc(S(=O)(=O)c2ccc3c(=O)n(Cc4ccc(OC)nc4)ncc3c2)nc1 [Example 172, 6-(5-methoxypyridin-2-ylsulfonyl)-2-((6-methoxypyridin-3-yl)methyl)phthalazin-1(2H)-one] | 84.1% | 0.0619 µM
5 | Cc1c[nH]nc1Cn1ncc2cc(S(=O)(=O)c3ccc4c(c3)CCO4)ccc2c1=O [Example 208, 6-((2,3-dihydrobenzofuran-5-yl)sulfonyl)-2-((4-methyl-1H-pyrazol-3-yl)methyl)phthalazin-1(2H)-one] | 104% | 0.0333 µM
6 | Cc1c(Cl)c(Cn2ncc3cc(S(=O)(=O)c4cn[nH]c4)ccc3c2=O)nn1C [Example 338] | 96.4% | 0.0244 µM
7 | Cn1ccc(S(=O)(=O)c2ccc3c(=O)n(Cc4cccc(N)c4)ncc3c2)n1 [Example 145, 2-(3-aminobenzyl)-6-((1-methyl-1H-pyrazol-3-yl)sulfonyl)phthalazin-1(2H)-one] | 106% | 0.156 µM
8 | Cc1c(Cn2ncc3cc(S(=O)(=O)c4cn[nH]c4)ccc3c2=O)nn2c1OCC2 [Example 362] | 105% | 0.042 µM
9 | O=c1c2ccc(S(=O)(=O)c3cc[nH]n3)cc2cnn1Cc1cccc(C2CC2)n1 [Example 302] | 104% | 0.119 µM
10 | Nc1cccc(Cn2ncc3cc(S(=O)(=O)c4ccc5c(c4)OCO5)ccc3c2=O)c1 [Example 152, 2-(3-aminobenzyl)-6-(benzo[d][1,3]dioxol-5-ylsulfonyl)phthalazin-1(2H)-one] | 95.2% | 0.019 µM
11 | Cc1cc(Cn2ncc3cc(S(=O)(=O)c4ccccc4)ccc3c2=O)sn1 [Example 97, 2-((3-methylisothiazol-5-yl)methyl)-6-(phenylsulfonyl)phthalazin-1(2H)-one] | 99.1% | 0.715 µM
12 | Cn1cc(S(=O)(=O)c2ccc3c(=O)n(Cc4ccc5occc5n4)ncc3c2)cn1 [Example 330] | 108% | 0.0206 µM
13 | O=c1c2ccc(S(=O)(=O)c3ccccc3)cc2cnn1Cc1ccn(C(F)F)n1 [Example 28, 2-((1-(difluoromethyl)-1H-pyrazol-3-yl)methyl)-6-(phenylsulfonyl)phthalazin-1(2H)-one] | 103% | 0.162 µM
14 | O=c1c2ccc(S(=O)(=O)c3cc[nH]n3)cc2cnn1Cc1ccn(C2CC2)n1 [Example 339] | 110% | 0.0678 µM
15 | O=c1c2ccc(S(=O)(=O)c3cc[nH]n3)cc2cnn1Cc1ccn(C(F)F)n1 [Example 328] | 91.5% | 0.162 µM
16 | O=c1c2ccc(S(=O)(=O)c3cccnc3)cc2cnn1Cc1cc[nH]n1 [Example 233, 2-((1H-pyrazol-3-yl)methyl)-6-(pyridin-3-ylsulfonyl)phthalazin-1(2H)-one] | 126% | 0.489 µM
17 | C[C@H](O)c1cccc(Cn2ncc3cc(S(=O)(=O)c4cnn(C)c4)ccc3c2=O)n1 (single isomer, unassigned) [Example 278] | 78.6% | 0.434 µM
18 | O=c1c2ccc(S(=O)(=O)c3cnccn3)cc2cnn1Cc1cc[nH]n1 [Example 260, 2-((1H-pyrazol-3-yl)methyl)-6-(pyrazin-2-ylsulfonyl)phthalazin-1(2H)-one] | 113% | 0.469 µM
19 | COc1ccc(Cn2ncc3cc(S(=O)(=O)c4cnn(CCO)c4)ccc3c2=O)nc1 [Example 311] | 105% | 0.238 µM
20 | COc1ccc(Cn2ncc3cc(S(=O)(=O)c4cccc(C(N)=O)c4)ccc3c2=O)cn1 [Example 161, 3-(2-((6-methoxypyridin-3-yl)methyl)-1-oxo-1,2-dihydrophthalazin-6-ylsulfonyl)benzamide] | 56.8% | 0.211 µM

Row | Structure (SMILES) | Emax | EC50
21 | N=[S@@](=O)(c1cn[nH]c1)c1ccc2c(=O)n(Cc3ccc4c(n3)CCO4)ncc2c1 (stereo in doubt) [Example 364] | 114% | 0.035 µM
22 | Cn1cc(S(=O)(=O)c2ccc3c(=O)n(Cc4cc(Cl)[nH]n4)ncc3c2)cn1 [Example 317] | 109% | 0.169 µM
23 | O=c1c2ccc(S(=O)(=O)c3ccn(CCO)n3)cc2cnn1Cc1cccnc1O [Example 237, 6-(1-(2-hydroxyethyl)-1H-pyrazol-3-ylsulfonyl)-2-((2-hydroxypyridin-3-yl)methyl)phthalazin-1(2H)-one] | 80.7% | 0.582 µM
24 | Cc1nc(Cn2ncc3cc(S(=O)(=O)c4cc[nH]n4)ccc3c2=O)ccc1F [Example 303] | 118% | 0.0883 µM
25 | Cc1ccc(S(=O)(=O)c2ccc3c(=O)n(Cc4cc[nH]n4)ncc3c2)nc1 [Example 289, 2-((1H-pyrazol-3-yl)methyl)-6-((5-methylpyridin-2-yl)sulfonyl)phthalazin-1(2H)-one] | 91.8% | 0.319 µM
26 | O=c1c2cnc(S(=O)(=O)c3cn[nH]c3)cc2cnn1Cc1ccc2c(n1)CCO2 [Example 347] | 104% | 0.0245 µM
27 | COc1ccc(Cn2ncc3cc([S@@](=N)(=O)c4ccc(OC(F)F)cc4)ccc3c2=O)cn1 (single isomer, unassigned) [Example 136] | 97.2% | 0.0465 µM
28 | COCCn1cc(S(=O)(=O)c2ccc3c(=O)n(Cc4cc[nH]n4)ncc3c2)cn1 [Example 281, 2-((1H-pyrazol-3-yl)methyl)-6-((1-(2-methoxyethyl)-1H-pyrazol-4-yl)sulfonyl)phthalazin-1(2H)-one] | 113% | 0.382 µM
29 | O=c1c2ccc(S(=O)(=O)c3ccccc3)cc2cnn1Cc1ccn(C2COC2)n1 [Example 273, 2-((1-(oxetan-3-yl)-1H-pyrazol-3-yl)methyl)-6-(phenylsulfonyl)phthalazin-1(2H)-one] | 112% | 0.457 µM
30 | COc1ccc(Cn2ncc3cc(S(=O)(=O)c4ccn(C(F)F)n4)ccc3c2=O)cn1 [Example 179, 6-(1-(difluoromethyl)-1H-pyrazol-3-ylsulfonyl)-2-((6-methoxypyridin-3-yl)methyl)phthalazin-1(2H)-one] | 89.7% | 0.0561 µM
31 | COc1ccc(F)c(Cn2ncc3cc(S(=O)(=O)c4cn[nH]c4)ccc3c2=O)n1 [Example 326] | 106% | 0.174 µM
32 | C[C@@H](O)c1cccc(Cn2ncc3cc(S(=O)(=O)c4cnn(C)c4)ccc3c2=O)n1 (single isomer, unassigned) [Example 279] | 88.7% | 0.277 µM
33 | O=c1c2ccc(S(=O)(=O)c3ccc4c(n3)OCCO4)cc2cnn1Cc1cc[nH]n1 [Example 229, 2-((1H-pyrazol-3-yl)methyl)-6-((2,3-dihydro-[1,4]dioxino[2,3-b]pyridin-6-yl)sulfonyl)phthalazin-1(2H)-one] | 94.7% | 0.0449 µM
34 | COc1ccc(Cn2ncc3cc([S@](=N)(=O)c4ccccc4)ccc3c2=O)cn1 (single isomer, unassigned) [Example 132] | 95.1% | 0.289 µM
35 | COc1ccc(Cn2ncc3cc(S(=O)(=O)c4cccc(OC(F)F)c4)ccc3c2=O)cn1 [Example 170, 6-(3-(difluoromethoxy)phenylsulfonyl)-2-((6-methoxypyridin-3-yl)methyl)phthalazin-1(2H)-one] | 101% | 0.082 µM
36 | Cc1cccc(Cn2ncc3cc(S(=O)(=O)c4csc([C@@H](C)O)n4)ccc3c2=O)n1 (single isomer, unassigned) [Example 296] | 92.2% | 0.111 µM
37 | COc1ccc(Cn2ncc3cc(OC4(c5ccccc5)COC4)ncc3c2=O)cn1 [Example 125, 3-((6-methoxypyridin-3-yl)methyl)-7-((3-phenyloxetan-3-yl)oxy)pyrido[3,4-d]pyridazin-4(3H)-one] | 88.8% | 0.458 µM
38 | COc1ccc(Cn2ncc3cc(S(=O)(=O)c4csc(C)n4)ccc3c2=O)cn1 [Example 174, 2-((6-methoxypyridin-3-yl)methyl)-6-(2-methylthiazol-4-ylsulfonyl)phthalazin-1(2H)-one] | 94.2% | 0.106 µM
39 | Cn1ccc(S(=O)(=O)c2ccc3c(=O)n(Cc4cccc(OC(F)F)c4)ncc3c2)n1 [Example 198, 2-(3-(difluoromethoxy)benzyl)-6-((1-methyl-1H-pyrazol-3-yl)sulfonyl)phthalazin-1(2H)-one] | 74% | 0.1 µM
